Data reported in patent US7709636B2, “Pyrazole sulfonylurea compound and herbicide” (Nissan Chemical Industries, Ltd., priority 2004, dated 2010).

What was measured:
Monochoria vaginalis [1] = experiment: Herbicidal effect test in submerged condition by treatment before weed-generation (1); type: in vivo; conditions: 0.64 g/a, water surface treated on day of sowing, 3 weeks after treatment
How it was run: (§1)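 Pre-emergence water-surface application of diluted wettable-powder formulation at a predetermined rate, same day as sowing, in flooded alluvial soil (4 cm water) with transplanted 2.5-leaf rice. Grown 3 weeks at 25 to 30° C in greenhouse; rated 0–5 by herbicidal rate.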

Echinochloa crus-galli [2] = experiment: as above; type: in vivo; conditions: 0.64 g/a, water surface treated on day of sowing, 3 weeks after treatment
How it was run: as §1

Scirpus juncoides [3] = experiment: as above; type: in vivo; conditions: 0.64 g/a, water surface treated on day of sowing, 3 weeks after treatment
How it was run: as §1

Monochoria vaginalis [4] = experiment: Herbicidal effect test in submerged condition by treatment during weed-growth stage (1); type: in vivo; conditions: 0.64 g/a, treated at 1st to 2nd leaf stage, 3 weeks after treatment
How it was run: (§2)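 Paddy-soil pots flooded to 4 cm water depth were sown and grown in a greenhouse at 25 to 30° C until weeds reached 1st to 2nd leaf stage. A wettable powder diluted in water to a predetermined formulation amount was applied to the water surface. Herbicidal effect was scored 3 weeks after treatment against set criteria.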

Echinochloa crus-galli [5] = experiment: as above; type: in vivo; conditions: 0.64 g/a, treated at 1st to 2nd leaf stage, 3 weeks after treatment
How it was run: as §2

Scirpus juncoides [6] = experiment: as above; type: in vivo; conditions: 0.64 g/a, treated at 1st to 2nd leaf stage, 3 weeks after treatment
How it was run: as §2

Stellaria media [7] = experiment: Herbicidal effect test by soil treatment; type: in vivo; conditions: 1.6 g/a, 3 weeks after treatment
How it was run: (§3)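 Pre-emergence soil application: wettable powder formulation, water-diluted to set dose, sprayed evenly over soil surface after sowing; seeds under ~1.5 cm sterilized diluvial soil. Effect rated at 3 wk by criteria scale.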

soybean (Glycine max) [8] = experiment: Herbicidal effect test by soil treatment; type: in vivo; conditions: 1.6 g/a, 3 weeks after treatment
How it was run: as §3

Chenopodium album [9] = experiment: Herbicidal effect test by soil treatment; type: in vivo; conditions: 1.6 g/a, 3 weeks after treatment
How it was run: as §3

Setaria viridis [10] = experiment: Herbicidal effect test by soil treatment; type: in vivo; conditions: 1.6 g/a, 3 weeks after treatment
How it was run: as §3

Avena fatua [11] = experiment: Herbicidal effect test by soil treatment; type: in vivo; conditions: 1.6 g/a, 3 weeks after treatment
How it was run: as §3

Black-grass [12] = experiment: Herbicidal effect test by soil treatment; type: in vivo; conditions: 1.6 g/a, 3 weeks after treatment
How it was run: as §3

Ambrosia elatior [13] = experiment: Herbicidal effect test by soil treatment; type: in vivo; conditions: 1.6 g/a, 3 weeks after treatment
How it was run: as §3

Beta vulgaris (beet) [14] = experiment: Herbicidal effect test by soil treatment; type: in vivo; conditions: 1.6 g/a, 3 weeks after treatment
How it was run: as §3

Echinochloa crus-galli [15] = experiment: Herbicidal effect test by soil treatment; type: in vivo; conditions: 1.6 g/a, 3 weeks after treatment
How it was run: as §3

[16] = system: Triticum aestivum (wheat); experiment: Herbicidal effect test by soil treatment; type: in vivo; conditions: 1.6 g/a, 3 weeks after treatment
How it was run: as §3

corn (Zea mays) [17] = experiment: Herbicidal effect test by soil treatment; type: in vivo; conditions: 1.6 g/a, 3 weeks after treatment
How it was run: as §3

Amaranthus retroflexus [18] = experiment: Herbicidal effect test by soil treatment; type: in vivo; conditions: 1.6 g/a, 3 weeks after treatment
How it was run: as §3

Abutilon avicennae [19] = experiment: Herbicidal effect test by soil treatment; type: in vivo; conditions: 1.6 g/a, 3 weeks after treatment
How it was run: as §3

Polygonum blumei [20] = experiment: Herbicidal effect test by soil treatment; type: in vivo; conditions: 1.6 g/a, 3 weeks after treatment
How it was run: as §3

Digitaria adscendes [21] = experiment: Herbicidal effect test by soil treatment; type: in vivo; conditions: 1.6 g/a, 3 weeks after treatment
How it was run: as §3

Stellaria media [22] = experiment: Herbicidal effect test by foliage treatment; type: in vivo; conditions: 1.6 g/a; foliage treatment after growth of 14 days; 3 weeks after treatment
How it was run: (§4)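 Post-emergence foliar spray: plants raised 14 d in greenhouse (25–30° C) from seed in sterilized diluvial soil, sprayed with diluted wettable powder formulation, injury rated visually at 3 wk.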

soybean (Glycine max) [23] = experiment: Herbicidal effect test by foliage treatment; type: in vivo; conditions: 1.6 g/a; foliage treatment after growth of 14 days; 3 weeks after treatment
How it was run: as §4

Chenopodium album [24] = experiment: Herbicidal effect test by foliage treatment; type: in vivo; conditions: 1.6 g/a; foliage treatment after growth of 14 days; 3 weeks after treatment
How it was run: as §4

Setaria viridis [25] = experiment: Herbicidal effect test by foliage treatment; type: in vivo; conditions: 1.6 g/a; foliage treatment after growth of 14 days; 3 weeks after treatment
How it was run: as §4

Avena fatua [26] = experiment: Herbicidal effect test by foliage treatment; type: in vivo; conditions: 1.6 g/a; foliage treatment after growth of 14 days; 3 weeks after treatment
How it was run: as §4

Black-grass [27] = experiment: Herbicidal effect test by foliage treatment; type: in vivo; conditions: 1.6 g/a; foliage treatment after growth of 14 days; 3 weeks after treatment
How it was run: as §4

Ambrosia elatior [28] = experiment: Herbicidal effect test by foliage treatment; type: in vivo; conditions: 1.6 g/a; foliage treatment after growth of 14 days; 3 weeks after treatment
How it was run: as §4

Beta vulgaris (beet) [29] = experiment: Herbicidal effect test by foliage treatment; type: in vivo; conditions: 1.6 g/a; foliage treatment after growth of 14 days; 3 weeks after treatment
How it was run: as §4

Echinochloa crus-galli [30] = experiment: Herbicidal effect test by foliage treatment; type: in vivo; conditions: 1.6 g/a; foliage treatment after growth of 14 days; 3 weeks after treatment
How it was run: as §4

[31] = system: Triticum aestivum (wheat); experiment: Herbicidal effect test by foliage treatment; type: in vivo; conditions: 1.6 g/a; foliage treatment after growth of 14 days; 3 weeks after treatment
How it was run: as §4

corn (Zea mays) [32] = experiment: Herbicidal effect test by foliage treatment; type: in vivo; conditions: 1.6 g/a; foliage treatment after growth of 14 days; 3 weeks after treatment
How it was run: as §4

Amaranthus retroflexus [33] = experiment: Herbicidal effect test by foliage treatment; type: in vivo; conditions: 1.6 g/a; foliage treatment after growth of 14 days; 3 weeks after treatment
How it was run: as §4

Abutilon avicennae [34] = experiment: Herbicidal effect test by foliage treatment; type: in vivo; conditions: 1.6 g/a; foliage treatment after growth of 14 days; 3 weeks after treatment
How it was run: as §4

Polygonum blumei [35] = experiment: Herbicidal effect test by foliage treatment; type: in vivo; conditions: 1.6 g/a; foliage treatment after growth of 14 days; 3 weeks after treatment
How it was run: as §4

Digitaria adscendes [36] = experiment: Herbicidal effect test by foliage treatment; type: in vivo; conditions: 1.6 g/a; foliage treatment after growth of 14 days; 3 weeks after treatment
How it was run: as §4

direct sown rice [37] = experiment: Herbicidal effect test by soil treatment; type: in vivo, Oryza sativa; conditions: 1.6 g/a, 3 weeks after treatment
How it was run: as §3

direct sown rice [38] = experiment: Herbicidal effect test by foliage treatment; type: in vivo, Oryza sativa; conditions: 1.6 g/a; foliage treatment after growth of 14 days; 3 weeks after treatment
How it was run: as §4

For COc1cc(OC)nc(NC(=O)NS(=O)(=O)c2c(C3=NOCC(C)(CI)O3)c(C)nn2C)n1 (centres unmarked) [Compound 8, N-((4,6-dimethoxypyrimidin-2-yl)aminocarbonyl)-4-(5-iodomethyl-5-methyl-5H,6H-1,4,2-dioxadin-3-yl)-1,3-dimethylpyrazole-5-sulfonamide], the “herbicidal effect, C: Monochoria vaginalis” value (Monochoria vaginalis [1]) was 5 (Herbicidal rate 90% or more (almost complete death)), the “herbicidal effect, A: Echinochloa crus-galli” value (Echinochloa crus-galli [2]) was 3 (Herbicidal rate 40% or more and less than 70%) and the “herbicidal effect, B: Scirpus juncoides” value (Scirpus juncoides [3]) was 4 (Herbicidal rate 70% or more and less than 90%). For the same molecule, the “herbicidal effect, C: Monochoria vaginalis” value (Monochoria vaginalis [4]) was 4 (Herbicidal rate 70% or more and less than 90%), the “herbicidal effect, A: Echinochloa crus-galli” value (Echinochloa crus-galli [5]) was 4 (Herbicidal rate 70% or more and less than 90%) and the “herbicidal effect, B: Scirpus juncoides” value (Scirpus juncoides [6]) was 4 (Herbicidal rate 70% or more and less than 90%). For the same molecule, the “herbicidal effect, M: Stellaria media” value (Stellaria media [7]) was 4 (Herbicidal rate 70% or more and less than 90%), the “herbicidal effect, c: soybean (Glycine max)” value (soybean (Glycine max) [8]) was 0 (Herbicidal rate 5% or less (little effect)) and the “herbicidal effect, K: Chenopodium album” value (Chenopodium album [9]) was 2 (Herbicidal rate 20% or more and less than 40%). For the same molecule, the “herbicidal effect, E: Setaria viridis” value (Setaria viridis [10]) was 0 (Herbicidal rate 5% or less (little effect)), the “herbicidal effect, F: Avena fatua” value (Avena fatua [11]) was 0 (Herbicidal rate 5% or less (little effect)) and the “herbicidal effect, G: Black-grass” value (Black-grass [12]) was 3 (Herbicidal rate 40% or more and less than 70%). The “herbicidal effect, I: Ambrosia elatior” value (Ambrosia elatior [13]) was 5 (Herbicidal rate 90% or more (almost complete death)), the “herbicidal effect, f: Beta vulgaris (beet)” value (Beta vulgaris (beet) [14]) was 2 (Herbicidal rate 20% or more and less than 40%) and the “herbicidal effect, A: Echinochloa crus-galli” value (Echinochloa crus-galli [15]) was 1 (Herbicidal rate 5% or more and less than 20%). For the same molecule, the “herbicidal effect, e: Triticum aestivum (wheat)” value [16] was 1 (Herbicidal rate 5% or more and less than 20%), the “herbicidal effect, b: corn (Zea mays)” value (corn (Zea mays) [17]) was 0 (Herbicidal rate 5% or less (little effect)) and the “herbicidal effect, J: Amaranthus retroflexus” value (Amaranthus retroflexus [18]) was 5 (Herbicidal rate 90% or more (almost complete death)). For the same molecule, the “herbicidal effect, H: Abutilon avicennae” value (Abutilon avicennae [19]) was 0 (Herbicidal rate 5% or less (little effect)), the “herbicidal effect, L: Polygonum blumei” value (Polygonum blumei [20]) was 5 (Herbicidal rate 90% or more (almost complete death)) and the “herbicidal effect, D: Digitaria adscendes” value (Digitaria adscendes [21]) was 3 (Herbicidal rate 40% or more and less than 70%). The “herbicidal effect, M: Stellaria media” value (Stellaria media [22]) was 4 (Herbicidal rate 70% or more and less than 90%), the “herbicidal effect, c: soybean (Glycine max)” value (soybean (Glycine max) [23]) was 4 (Herbicidal rate 70% or more and less than 90%) and the “herbicidal effect, K: Chenopodium album” value (Chenopodium album [24]) was 4 (Herbicidal rate 70% or more and less than 90%). The “herbicidal effect, E: Setaria viridis” value (Setaria viridis [25]) was 4 (Herbicidal rate 70% or more and less than 90%), the “herbicidal effect, F: Avena fatua” value (Avena fatua [26]) was 1 (Herbicidal rate 5% or more and less than 20%) and the “herbicidal effect, G: Black-grass” value (Black-grass [27]) was 0 (Herbicidal rate 5% or less (little effect)). For the same molecule, the “herbicidal effect, I: Ambrosia elatior” value (Ambrosia elatior [28]) was 4 (Herbicidal rate 70% or more and less than 90%), the “herbicidal effect, f: Beta vulgaris (beet)” value (Beta vulgaris (beet) [29]) was 4 (Herbicidal rate 70% or more and less than 90%) and the “herbicidal effect, A: Echinochloa crus-galli” value (Echinochloa crus-galli [30]) was 4 (Herbicidal rate 70% or more and less than 90%). The “herbicidal effect, e: Triticum aestivum (wheat)” value [31] was 1 (Herbicidal rate 5% or more and less than 20%), the “herbicidal effect, b: corn (Zea mays)” value (corn (Zea mays) [32]) was 4 (Herbicidal rate 70% or more and less than 90%) and the “herbicidal effect, J: Amaranthus retroflexus” value (Amaranthus retroflexus [33]) was 4 (Herbicidal rate 70% or more and less than 90%). The “herbicidal effect, H: Abutilon avicennae” value (Abutilon avicennae [34]) was 5 (Herbicidal rate 90% or more (almost complete death)), the “herbicidal effect, L: Polygonum blumei” value (Polygonum blumei [35]) was 4 (Herbicidal rate 70% or more and less than 90%) and the “herbicidal effect, D: Digitaria adscendes” value (Digitaria adscendes [36]) was 3 (Herbicidal rate 40% or more and less than 70%). The “herbicidal effect, d: direct sown rice” value (direct sown rice [37]) was 2 (Herbicidal rate 20% or more and less than 40%) and the “herbicidal effect, d: direct sown rice” value (direct sown rice [38]) was 1 (Herbicidal rate 5% or more and less than 20%).
